Laboratory results taken from US11529361B2, “Halogenated salicylanilides for treating Clostridium infections” (UNION therapeutics A/S, priority 2015, dated 2022).
≈ marks a conversion by molar mass, not a printed value. Read-outs that look alike come from different tables or passages of the source.

Key:
[1] = system: C. difficile clinical isolates; experiment: MIC determination by microbroth dilution per CLSI guideline (Example 1); format: cell-based, Clostridium difficile; settings: Clostridioides difficile
[2] = system: 24 clinical isolate strains of C. difficile; experiment: Additional MIC determinations, antibacterial activity by OD600 (Example 3); format: cell-based, Clostridium difficile
rats = settings: p.o., cited from earlier work
[3] = system: Clostridium difficile 7-6011209; format: cell-based
C. difficile = settings: published data (footnote a); cited from earlier work
[4] = system: Clostridium difficile infection (CDAD); settings: phase III clinical trials, versus vancomycin; cited from earlier work
mice = settings: p.o.; cited from earlier work

| Structure (SMILES) | MIC ([2]; strain 7-5085357 (ST028)) [µg/mL] | MIC ([2]; strain 7-6011209 (ST002)) [µg/mL] | MIC ([2]; strain 7-6778909 (ST016)) [µg/mL] | MIC ([2]; strain 7-6854508 (ST013)) [µg/mL] | MIC ([2]; strain 7-6870430 (ST001)) [µg/mL] | MIC ([2]; strain 7-7104022 (ST103)) [µg/mL] | MIC ([2]; strain 7-7116411 (ST005)) [µg/mL] | MIC ([2]; strain 7-7124449 (ST009)) [µg/mL] | MIC ([2]; strain 7-7149204 (ST006)) [µg/mL] | MIC ([2]; strain 7-7150288 (ST003)) [µg/mL] | MIC ([2]; strain 7-7150318 (ST059)) [µg/mL] | MIC ([2]; strain 7-7150628 (ST034)) [µg/mL] | MIC ([2]; strain 7-7150997 (ST049)) [µg/mL] | MIC ([2]; strain 7-7154992 (ST139)) [µg/mL] | MIC ([2]; strain 7-7200552 (ST017)) [µg/mL] | MIC ([2]; strain 12055) [µg/mL] | MIC ([2]; strain 12060) [µg/mL] | MIC ([2]; strain 12061) [µg/mL] | MIC ([2]; strain 12063) [µg/mL] | MIC ([2]; strain 12064) [µg/mL] | other results |
| --- | --- | --- | --- | --- | --- | --- | --- | --- | --- | --- | --- | --- | --- | --- | --- | --- | --- | --- | --- | --- | --- |
| Cc1cc(C(C#N)c2ccc(Cl)cc2)c(Cl)cc1NC(=O)c1cc(I)cc(I)c1O (centres unmarked) [Closantel] | 0.016 (≈ 0.0241 µM) | 0.016 (≈ 0.0241 µM) | 0.031 (≈ 0.0468 µM) | 0.25 (≈ 0.377 µM) | 0.031 (≈ 0.0468 µM) | 0.25 (≈ 0.377 µM) | 0.25 (≈ 0.377 µM) | 0.25 (≈ 0.377 µM) | 0.31 (≈ 0.468 µM) | 0.031 (≈ 0.0468 µM) | 0.63 (≈ 0.95 µM) | 0.063 (≈ 0.095 µM) | 0.016 (≈ 0.0241 µM) | 0.063 (≈ 0.095 µM) | 0.5 (≈ 0.754 µM) | 0.063 (≈ 0.095 µM) | 0.125 (≈ 0.189 µM) | 0.063 (≈ 0.095 µM) | 0.031 (≈ 0.0468 µM) | 0.031 (≈ 0.0468 µM) | MIC ([1]; Table 3, strain 7-6011209, read-out: C. difficile Strain 7-6011209 MIC): 0.125 µg/mL (≈ 0.189 µM); MIC ([1]; Table 3, strain 12055, read-out: C. difficile Strain 12055 MIC): 0.125 µg/mL (≈ 0.189 µM); MIC ([2]; strain 12062): 0.063 µg/mL (≈ 0.095 µM); MIC ([2]; strain 12065): 0.063 µg/mL (≈ 0.095 µM); MIC ([2]; strain 12066): 0.5 µg/mL (≈ 0.754 µM); LD50 (rats): 262 to 342 mg/kg |
| CCc1c(Cl)c(O)c(Cl)c(O)c1C(=O)O[C@H]1[C@H](O)[C@H](OC)[C@H](OC/C2=C\C=C\C[C@H](O)/C(C)=C/[C@H](CC)[C@@H](O[C@@H]3OC(C)(C)[C@@H](OC(=O)C(C)C)[C@H](O)[C@@H]3O)/C(C)=C/C(C)=C/C[C@@H]([C@@H](C)O)OC2=O)O[C@@H]1C [Fidaxomycin] | < 0.008 | < 0.008 | < 0.008 | < 0.008 | 0.016 (≈ 0.0151 µM) | < 0.008 | 2 (≈ 1.89 µM) | < 0.008 | < 0.008 | < 0.008 | < 0.008 | < 0.008 | < 0.008 | < 0.008 | < 0.008 | < 0.008 | < 0.008 | < 0.008 | < 0.008 | < 0.008 | MIC ([2]; strain 7-7363761 (ST008)): < 0.008 µg/mL; MIC ([2]; strain 12062): < 0.008 µg/mL; MIC ([2]; strain 12065): < 0.008 µg/mL; MIC ([2]; strain 12066): < 0.008 µg/mL; formation of heat-resistant spores over time [3]: suppressed formation of spores for the first 48 hours of the study; Highest MIC observed (C. difficile): 1 ^ μg/mL; MIC90 (C. difficile): 0.5^a μg/mL; clinical cure of CDAD [4]: non-inferior to vancomycin; preventing recurrence of CDAD [4]: superior to vancomycin |
| Cc1ncc([N+](=O)[O-])n1CCO [Metronidazole] | 1 (≈ 5.84 µM) | 0.031 (≈ 0.181 µM) | 0.25 (≈ 1.46 µM) | 1 (≈ 5.84 µM) | 1 (≈ 5.84 µM) | > 8 | > 16 | 2 (≈ 11.7 µM) | 0.5 (≈ 2.92 µM) | 0.063 (≈ 0.368 µM) | 1 (≈ 5.84 µM) | 0.5 (≈ 2.92 µM) | 0.031 (≈ 0.181 µM) | 1 (≈ 5.84 µM) | 2 (≈ 11.7 µM) | 1 (≈ 5.84 µM) | 1 (≈ 5.84 µM) | 1 (≈ 5.84 µM) | 0.25 (≈ 1.46 µM) | 0.031 (≈ 0.181 µM) | MIC ([2]; strain 12065): 1 µg/mL (≈ 5.84 µM); MIC ([2]; strain 12066): 1 µg/mL (≈ 5.84 µM); Highest MIC observed (C. difficile): >32^a μg/mL; MIC90 (C. difficile): 1^a μg/mL |
| O=C(Nc1ccc(Oc2ccc(Cl)cc2)c(Cl)c1)c1cc(I)cc(I)c1O [Rafoxanide] | 0.016 (≈ 0.0256 µM) | < 0.008 | < 0.008 | < 0.008 | < 0.008 | < 0.008 | 0.031 (≈ 0.0495 µM) | 0.031 (≈ 0.0495 µM) | < 0.008 | < 0.008 | < 0.008 | 0.31 (≈ 0.495 µM) | < 0.008 | 0.016 (≈ 0.0256 µM) | 0.063 (≈ 0.101 µM) | < 0.008 | 0.031 (≈ 0.0495 µM) | 0.016 (≈ 0.0256 µM) | < 0.008 | < 0.008 | MIC ([1]; read-out: C. difficile Strain 7-6011209 MIC): < 0.08 µg/mL; MIC ([1]; read-out: C. difficile Strain 12055 MIC): < 0.08 µg/mL; MIC ([2]; strain 12062): 0.016 µg/mL (≈ 0.0256 µM); MIC ([2]; strain 12065): 0.016 µg/mL (≈ 0.0256 µM); MIC ([2]; strain 12066): 0.063 µg/mL (≈ 0.101 µM); formation of heat-resistant spores over time [3]: suppressed formation of spores throughout the 96 hour study period; LD50 (mice): 232 to 300 mg/kg; LD50, median (rats; median over studies): > 1490 mg/kg |
